The values below come from patent publication EP1464336A1, “Use of tryprostatin A for the reversal of cancer drug resistance” (Humboldt-Universität zu Berlin, priority 2003, dated 2004).

In data set [1] the test system is EPG85-257RDB cells. Briefly: Modulation of chemoresistance to daunorubicin (SRB proliferation assay, IC50/DMF). Type of data set: cell-based, human. Conditions: GF120918; classical MDR, P-gp-expressing cells (Table 2, Figure 3B). The method, then: Modulation of chemoresistance was tested using a proliferation assay based on sulforhodamine B (SRB), a protein-binding reagent (Skehan P et al., J Natl Cancer Inst 1990;82:1107-12), as described in Lage H et al., Int J Hyperthermia 2000;16:291-303; Lage H et al., FEBS Lett 2001;503:179-84; Lage H et al., FEBS Lett 2001;494:54-9. In each experiment, 350 cells per well were seeded in the presence or absence of TPS-A in 96-well plates in complete medium and allowed to attach overnight. Mitoxantrone or daunorubicin were added in a dilution series in triplicate wells. After 5 days, when unselected wells were still subconfluent, incubation was terminated by replacing the medium with 10 % trichloroacetic acid, followed by incubation at 4 °C for 1 h. […] After air-drying and re-solubilisation of the protein-bound dye in 10 mM Tris-HCl (pH 8.0), absorbance was quantified at 562.5 nm. […] Linear regression of data was done for the linear part of the curve, and IC50-values were calculated from multiple, at least three independent experiments for each cell line.
The cellular sensitivity to mitoxantrone and daunorubicin was assessed by determining the IC50 values without or with increasing concentrations of TPS-A or GF120918 as a positive control in the different cancer cell variants. […]

The test system of data set [2] is parental, drug-sensitive gastric carcinoma cell variant EPG85-257P. Put plainly: Mitoxantrone accumulation assay (flow cytometry). Type of data set: cell-based, human. As to conditions: GF120918 (Fig 4). The method, then: (§1) Cellular mitoxantrone accumulation was determined according to the procedure described in Lage H et al., FEBS Lett 2001;503:179-84. Briefly, 4 x 10^5 cells were seeded out in 6-well plates 78 hours prior to the experiment. Incubation with mitoxantrone (0, 1,5 and 10 µg/ml) was performed for 60 minutes at 37°C and 70-80 % cellular confluence. For kinetics of intracellular enrichment of mitoxantrone, cells were exposed to 10 µg/ml mitoxantrone for 0, 5, 10 and 60 min. Cells were washed with ice-cold PBS, trypsinized and resuspended in 4 °C PBS at a concentration of 4 x 10^5 cells/ml. Intracellular fluorescence of mitoxantrone was determined by flow cytometry (Becton-Dickinson, San Jose, CA). The cells were excited at 480 nm and emission was measured at 630 nm. A minimum of 10^4 cells was analyzed for each sample. All assays were performed at least in three independent experiments, each time with triplicate wells.
(§2) To provide confirmation that the observed resensitization to mitoxantrone of BCRP-overexpressing cells was indeed the result of BCRP inhibition by TPS-A, a mitoxantrone accumulation assay was performed. The known so-called "multispecific" MDR modulator GF120918, inhibiting P-gp- and BCRP activity, was used as a positive control for P-gp- and BCRP antagonism.
(In flow cytometry, cells or beads pass a laser one at a time.)

Data set [3] relates to BCRP. Put plainly: Mitoxantrone accumulation assay (flow cytometry). Type of data set: cell-based, human. Conditions: human, probe mitoxantrone; 1 µM GF120918 (Fig 4); read-out: mitoxantrone accumulation inhibiting effect. The method, then: as §1, §2
Data set [4] deals with MCF-7/AdrVp. Put plainly: Mitoxantrone accumulation assay (flow cytometry). Type of data set: cell-based, human. Conditions: 1 µM GF120918. The method, then: as §1, §2
Data set [5] deals with drug-sensitive, parental cell line MCF-7. Put plainly: Mitoxantrone accumulation assay (flow cytometry). Type of data set: cell-based, human. Conditions: increasing modulator concentrations. The method, then: as §1, §2
Data set [6] relates to BCRP-transfected cell variant MCF-7/BCRP clone 8. Put plainly: Mitoxantrone accumulation assay (flow cytometry). Type of data set: cell-based, human. As to conditions: 1 µM GF120918; compared to drug accumulation level in the untreated, parental control cell line (Fig 4B). The method, then: as §1, §2
Data set [7] deals with P-gp. Briefly: Mitoxantrone accumulation assay (flow cytometry). Type of data set: cell-based, human. As to conditions: human, EPG85-257RDB cells (P-gp-expressing, classical MDR variant), probe mitoxantrone; 1 µM GF120918 (Fig 4); read-out: inhibition of mitoxantrone pump activity. The method, then: as §1, §2
The subject of data set [8] is drug-sensitive and drug-resistant gastric and breast cancer cell lines. Put plainly: Cytotoxicity of the MDR modulators alone (SRB proliferation assay). Type of data set: cell-based, human. The method, then:
(§3) Modulation of chemoresistance was tested using a proliferation assay based on sulforhodamine B (SRB), a protein-binding reagent (Skehan P et al., J Natl Cancer Inst 1990;82:1107-12), as described in Lage H et al., Int J Hyperthermia 2000;16:291-303; Lage H et al., FEBS Lett 2001;503:179-84; Lage H et al., FEBS Lett 2001;494:54-9. In each experiment, 350 cells per well were seeded in the presence or absence of TPS-A in 96-well plates in complete medium and allowed to attach overnight. Mitoxantrone or daunorubicin were added in a dilution series in triplicate wells. After 5 days, when unselected wells were still subconfluent, incubation was terminated by replacing the medium with 10 % trichloroacetic acid, followed by incubation at 4 °C for 1 h. After samples were washed 5 times with water and air-dried, 50 µl 0.4 % SRB (Sigma, St. Louis, MO) in 1 % acetic acid was added and samples were incubated for 10 min at room temperature. Unbound dye was eliminated by washing the plates 5 times with 1 % acetic acid. After air-drying and re-solubilisation of the protein-bound dye in 10 mM Tris-HCl (pH 8.0), absorbance was quantified at 562.5 nm. To determine the IC50-value, the absorbance difference of control cells without drug was set to be 100 %. Linear regression of data was done for the linear part of the curve, and IC50-values were calculated from multiple, at least three independent experiments for each cell line.
The cytotoxicity of the MDR modulators TPS-A and GF120918 on drug-sensitive and drug-resistant gastric and breast cancer cell lines was initially assessed.
For orientation: The SRB assay estimates cell density from bound dye.

The test system of data set [9] is MDR1 Pgp overexpressing subline (EPG85-257RDB). Briefly: C6-NBD-PS outward translocation assay. As to conditions: 10 µM inhibitor; 30 minutes at 37°C (Fig. 8). Type of data set: cell-based, human. The method, then:
(§4) To measure redistribution of C6-NBD-PS from the cytoplasmic to the exoplasmic leaflet, labelling of the cytoplasmic leaflet is preconditional. Previously, we have introduced a method to achieve efficient labeling of the plasma membrane inner leaflet of the gastric carcinoma cell line EPG85-257 (Pohl, A., Lage, H., Müller, P., Pomorksi, T., and Herrmann. A. (2002) Biochem. J. 365, 259-268). Briefly, cells were preincubated with or without MDR inhibitors, labelled with 5 µM C6-NBD-PS, and incubated at 20°C for 30 minutes to allow inward movement of the NBD analogue. C6-NBD-PS remaining on the cell surface was extracted twice by incubation with 2% (w/v) BSA in mPBS for 10 minutes on ice. Before starting the outward translocation assay, the medium was removed, and cells were washed with ice-cold mPBS. For t=0', ice-cold medium containing 2% (w/v) BSA and 5 mM DFP ( = diisopropyl fluoro-phosphate) in mPBS with or without inhibitor was immediately added to the cell dish for 10 minutes. To measure C6-NBD-PS outward translocation, medium prewarmed to 37°C was added to the dish, and cells were incubated at 37°C for 30 minutes (t = 30'). Removal of the BSA-containing media and a second extraction with 2% BSA in mPBS for 10 minutes terminated incubations, followed by lipid analysis.
(§5) After the incubations, the second BSA back exchange medium was pooled with the first, and cells scraped into mPBS. For analysis of outward translocation and of metabolic conversion of C6-NBD-PS, lipids from both scraped cells and media were extracted with isopropanol/chloroform/(5.5:1, v/v) to prevent substantial loss into the aqueous phase. Samples were centrifuged at 780 g for 5 minutes, the supernatant transferred into new glass tubes and dried, dissolved in chloroform/methanol (1:1) and quantified spectroscopically. For C6-NBD-PC analysis, lipids from both cells and incubation media were extracted by the method of Bligh and Dyer (Bligh, E., and Dyer, W. (1959) Can. J Biochem. Physiol. 37, 911-917) using 20 mM acetic acid in the aqueous phase. After 2-D separation [I, chloroform/methanol/25% ammonium hydroxide (65:25:4, v/v); II, chloroform/acetone/methanol/acetic acid/water (10:4:2:2:1, v/v)] on thin layer chromatography plates, fluorescent lipid spots were visualized under ultraviolet light, scraped, and quantified as described before (Pomorski, T., Müller, P., Zimmermann, B., Burger, K., Devaux, P., and Herrmann, A. (1996) J. Cell Sci. 109, 687-698).

The test system of data set [10] is BCRP overexpressing cells (EPG85-257RNOV). Put plainly: C6-NBD-PS outward translocation assay. Conditions: pretreatment with 10 µM inhibitor; 30 minutes at 37°C (Fig. 8). Type of data set: cell-based, human. The method, then: as §4, §5
Data set [11] concerns control cells (EPG85-257P). Put plainly: C6-NBD-PS outward translocation assay. Type of data set: cell-based, human. Conditions: 10 µM inhibitor; 30 minutes at 37°C (Fig. 8). The method, then: as §4, §5
In data set [12] the test system is gastric and breast carcinoma cell variants. Put plainly: Modulation of chemoresistance to mitoxantrone or daunorubicin (SRB proliferation assay, IC50/DMF). Type of data set: cell-based, human. The method, then: as §3
The cellular sensitivity to mitoxantrone and daunorubicin was assessed by determining the IC50 values without or with increasing concentrations of TPS-A or GF120918 as a positive control in the different cancer cell variants. Table 1 presents the data of TPS-A reversal of mitoxantrone and daunorubicin resistance in different gastric and breast carcinoma cell variants, respectively. […] In each case, the equation DMF=(IC50 (-CS))/(IC50 (+CS)) [formula] was used to calculate the dose modifying factor (DMF), comparing the IC50 values in the presence (+CS) or absence (-CS) of the corresponding chemosensitizer (CS) TPS-A or GF120918.

Data set [13] concerns the target P-gp (Homo sapiens, UniProt P08183). As to conditions: literature (Hyafil F et al., Cancer Res 1993); cited from earlier work.

Chain of P-gp (Homo sapiens, UniProt P08183) (P08183 whole entry): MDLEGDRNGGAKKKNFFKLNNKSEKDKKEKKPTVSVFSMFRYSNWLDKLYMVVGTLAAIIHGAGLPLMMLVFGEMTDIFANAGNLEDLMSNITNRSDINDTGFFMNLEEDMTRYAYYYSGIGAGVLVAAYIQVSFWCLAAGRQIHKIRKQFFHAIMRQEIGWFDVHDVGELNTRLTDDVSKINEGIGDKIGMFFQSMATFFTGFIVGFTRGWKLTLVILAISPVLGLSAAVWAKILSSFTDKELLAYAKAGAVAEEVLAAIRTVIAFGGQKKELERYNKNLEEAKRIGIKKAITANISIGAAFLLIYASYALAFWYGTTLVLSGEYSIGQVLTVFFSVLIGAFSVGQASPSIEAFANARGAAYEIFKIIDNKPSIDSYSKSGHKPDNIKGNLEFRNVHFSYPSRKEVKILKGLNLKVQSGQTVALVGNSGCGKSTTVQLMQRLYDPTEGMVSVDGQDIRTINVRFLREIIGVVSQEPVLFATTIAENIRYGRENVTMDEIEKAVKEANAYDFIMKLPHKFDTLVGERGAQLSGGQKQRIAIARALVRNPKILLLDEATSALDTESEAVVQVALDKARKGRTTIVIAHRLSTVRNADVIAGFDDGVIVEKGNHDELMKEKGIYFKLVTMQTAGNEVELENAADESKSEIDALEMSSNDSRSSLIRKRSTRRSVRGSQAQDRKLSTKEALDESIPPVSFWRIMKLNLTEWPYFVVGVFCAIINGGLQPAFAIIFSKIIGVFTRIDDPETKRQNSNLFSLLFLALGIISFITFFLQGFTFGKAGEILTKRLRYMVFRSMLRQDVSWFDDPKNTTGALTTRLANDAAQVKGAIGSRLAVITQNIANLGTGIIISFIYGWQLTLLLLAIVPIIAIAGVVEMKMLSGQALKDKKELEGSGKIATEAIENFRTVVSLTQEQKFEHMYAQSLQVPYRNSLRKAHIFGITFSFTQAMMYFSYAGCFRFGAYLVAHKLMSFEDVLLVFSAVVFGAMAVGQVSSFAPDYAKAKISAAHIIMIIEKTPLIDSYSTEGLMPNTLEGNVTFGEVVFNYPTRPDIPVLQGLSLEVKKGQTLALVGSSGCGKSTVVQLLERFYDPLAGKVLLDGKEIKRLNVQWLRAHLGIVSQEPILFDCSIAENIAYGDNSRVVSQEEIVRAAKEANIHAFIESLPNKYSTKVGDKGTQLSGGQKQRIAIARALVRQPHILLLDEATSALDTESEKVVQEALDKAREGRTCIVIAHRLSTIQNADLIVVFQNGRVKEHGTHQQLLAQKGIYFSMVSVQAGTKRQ

As for `COc1cc2c(cc1OC)CN(CCc1ccc(NC(=O)c3cccc4c(=O)c5cccc(OC)c5[nH]c34)cc1)CC2` [GF120918, reference compound], the sensitization to daunorubicin result in data set [1] is listed as “considerable dose-depending sensitization”. Also, in data set [2], the “transporter inhibiting effect (mitoxantrone accumulation)” value is “very weak transporter inhibiting effect”. For the same compound, the inhibition at 1 µM in data set [3] was 80%; in [7], 75%. Moreover, the “increase of drug accumulation with respect to control cells” value in data set [4] turned out to be 40%. The “effect on drug accumulation” value in data set [5] is given as “only a weak dosage-depending effect”. Also, the “inhibition of the mitoxantrone pump activity” value in data set [6] was “completely”. For the same compound, the growth inhibitory effect entry in [8] (1 µM GF120918 alone, any of the drug-sensitive or drug-resistant cancer cell lines tested) is recorded as “no growth inhibitory effect”. Besides, in [8] (multidrug-resistant tumor cell lines), the “cross-resistance to the MDR modulator” value is “No evidence of cross-resistance”. In addition, in [9], the “PS analogue outward translocation (MDR1 Pgp lipid transport activity)” value is given as “significant reduction”. The “amount of C6-NBD-PS in the BSA containing medium (outward translocation)” value in [10] is “sharp and highly significant decrease”. Moreover, the “PS transport (C6-NBD-PS outward translocation)” value in [11] was “did not affect PS transport significantly”. In data set [12] (1 µM GF120918, EPG85-257RNOV and EPG85-257RDB, same for MCF7/BCRP clone 8 and MCF-7/AdrVp), the “restoration of drug sensitivity (mitoxantrone resistance)” value is recorded as “not sufficient to restore drug sensitivity completely”. Besides, the resensitization to mitoxantrone result in [12] (GF120918, BCRP- and P-gp-expressing stomach and mamma carcinoma-derived cell lines (Table 2, Figure 3A)) is “dose-depending resensitization”. Further, the “effect on sensitivity to daunorubicin” value in data set [12] (GF120918, the other human gastric and breast cancer cell lines (not EPG85-257RDB)) was “no significant effect”. Moreover, in data set [13], the “concentration capable of restoring drug sensitivity (as low as)” value is 100 nM.
